Values of other authors in patent publication US20090018020A1, “USE OF COMPOUNDS COMPRISING A POLYSACCHARIDE STRUCTURE AS BIOFERTILISER AND PHYTOSANITARY PRODUCTS” (CENTRE NATIONAL DE LA RECHERCHE SCIENTIFIQUE, priority 2002, published 2009).

Details: literature (Mc Dougall and Fry 1989, 1990)

| Substance | auxinic or antiauxinic effect |
| --- | --- |
| XLLG | auxinic effect |
| XXLG | auxinic effect |
